Experiments:
[1] = tested on: Wnt activity (Sp5-Luc reporter, TCF/LEF binding sites) in SW480 colon carcinoma cells; assay: Sp5-Luc Wnt reporter gene screening assay in SW480 colon carcinoma cells; assay type: cell-based, human; details: Homo sapiens
Summary of the method: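 SW480 cells stably transduced with a lentiviral luciferase reporter driven by a Sp5 promoter with eight TCF/LEF sites were plated at 10,000/well in 10% FCS medium. Luminescence was normalised to DMSO and IC50 derived by four-parameter fit.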

[2] = tested on: primary human mesenchymal stem cells (hMSCs); assay: Chondrogenesis induction screen in primary human mesenchymal stem cells (nodule imaging, Rhodamine B/Nile Red); assay type: cell-based; details: 6 days; for Max. Activity as % TGF-β3 activity: TGF-β3 (10 ng/mL) positive control; for EC (100% of TGF-b3 activity): Homo sapiens, Mesenchymal stem cells, 144 h, concentration required to induce chondrogenesis equivalent to TGF-β3 (10 ng/mL), read-out: Conc (nM) of 100% TGF-β3 activity
Protocol: The above synthesized compounds were screened using primary human mesenchymal stem cells (hMSCs) to determine their ability to induce chondrogenesis (process by which cartilage is developed).
Human Mesenchymal Stern Cell Culture: Primary human mesenchymal stem cells (hMSCs) were purchased from Lonza (Walkersville, Md.) and expanded in Mesenchymal Stem Cell Growth Media (Lonza). Cells between passage 3 and 6 were used for the experiments.
Compound Screening: Each compound was dissolved in DMSO as a 10 mM stock and used to prepare compound source plates. Serial dilution (1:3, 6-point dose-response curves from 2700 nM to 10 nM) and compound transfer was performed using the ECHO 550 (Labcyte, Sunnyvale, Calif.) into 96-well clear bottom assay plates (Greiner Bio-One) with appropriate DMSO backfill for a final DMSO concentration of 0.03%. hMSCs were plated at 20,000 cells/well in 250 μL/well incomplete Chondrogenic induction Medium (Lonza; DMEM, dexamethasone, ascorbate, insulin-transferrin-selenium [ITS supplement], gentamycin-amphotericin [GA-1000], sodium pyruvate, proline and L-glutamine). TGF-β3 (10 ng/mL) was used as a positive control for differentiation while negative control wells were treated with 75 nL DMSO for normalization and calculating EC50 values. Cells were incubated at 37° C. and 5% CO2 for 6 days. To image chondrogenic nodules, the cells were fixed using 4% formaldehyde (Electron Microscopy Sciences), and stained with 2 μg/mL Rhodamine B (Sigma-Aldrich) and 20 μM Nile Red (Sigma-Aldrich) [Johnson K., et.al, A Stem Cell-Based Approach to Cartilage Repair, Science, (2012), 336(6082), 717-721]. The nodules imaged (4 images per well at 4× magnification) by excitation at 531 nm and emission at 625 nm and quantified using the CellInsight CX5 (Thermo Scientific). Number of nodules in each well was normalized to the average of 3 DMSO treated wells on the same plate using Excel (Microsoft Inc.). The normalized averages (fold change over DMSO) of 3 replicate wells for each compound concentration were calculated. Due to solubility limitations of some of the compounds, curve fitting was incomplete leading to inaccurate EC50 determinations.
Using TGF-β3 as a positive control, the concentration of test compounds required to induce equivalent levels of chondrogenesis is reported. In addition, the maximum activity of each compound and the respective dose that each compound reached maximum chondrogenesis activity is reported.

[3] = tested on: primary human fibroblasts derived from IPF patients (LL29 cells); assay: Inhibition of the fibrotic process in TGF-β1-treated primary human fibroblasts from IPF patients (αSMA staining); assay type: cell-based; details: Fibroblast, 96 h, TGF-β1 20 ng/mL, 4 days, read-out: Inhibition of fibrosis EC50
Summary of the method: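 IPF-derived LL29 lung fibroblasts, 1,500 per well in F12 with 1% FBS, treated with compound (10 μM to […], 0.1% DMSO) and TGF-β1 20 ng/mL for 4 days at 37 °C. αSMA-positive live cells imaged and normalised to TGF-β1 controls; EC50 by nonlinear regression over triplicate wells.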

SMILES | IC50 [1] [nM] | Max. Activity as % TGF-β3 activity [2] [%] | EC (100% of TGF-b3 activity) [2] [nM] | EC50 [3] [nM]
Cc1ccncc1-c1cc2c(-c3nc4c(-c5cc(F)cc(CNS(C)(=O)=O)c5)ccnc4[nH]3)n[nH]c2cn1 [Compound 421, N-(3-Fluoro-5-(2-(5-(4-methylpyridin-3-yl)-1H-pyrazolo[3,4-c]pyridin-3-yl)-3H-imidazo[4,5-b]pyridin-7-yl)benzyl)methanesulfonamide] | 23.3 | 30 | 70 | –
Fc1cccc(-c2ccnc3[nH]c(-c4n[nH]c5cnc(-c6cncc(CN7CCC(F)(F)C7)c6)cc45)nc23)c1 [Compound 25, 5-(5-((3,3-Difluoropyrrolidin-1-yl)methyl)pyridin-3-yl)-3-(7-(3-fluorophenyl)-3H-imidazo[4,5-b]pyridin-2-yl)-1H-pyrazolo[3,4-c]pyridine] | 22.1 | – | 112 | 20
CCCC(=O)Nc1cncc(-c2cc3c(-c4nc5c(-c6cccs6)ccnc5[nH]4)n[nH]c3cn2)c1 [Compound 329, N-(5-(3-(7-(Thiophen-2-yl)-3H-imidazo[4,5-b]pyridin-2-yl)-pyrazolo[3,4-c]pyridin-5-yl)pyridin-3-yl)butyramide] | 17.5 | 300 | 110 | 34
O=C(CC1CCNCC1)Nc1cncc(-c2cc3c(-c4nc5c(-c6cccc(F)c6)ccnc5[nH]4)n[nH]c3cn2)c1 [Compound 945] | 463 | – | 54.7 | 40
CC(C)(C)CC(=O)Nc1cncc(-c2cc3c(-c4nc5c(-c6ccccc6F)ccnc5[nH]4)n[nH]c3cn2)c1 [Compound 68, N-(5-(3-(7-(2-Fluorophenyl)-3H-imidazo[4,5-b]pyridin-2-yl)-1H-pyrazolo[3,4-c]pyridin-5-yl)pyridin-3-yl)-3,3-dimethylbutanamide] | 24.4 | – | 9.3 | 90
FC1(F)CCN(Cc2cncc(-c3cc4c(-c5nc6c(N7CCCCC7)ccnc6[nH]5)n[nH]c4cn3)c2)C1 [Compound 181, 5-(5-((3,3-Difluoropyrrolidin-1-yl)methyl)pyridin-3-yl)-3-(7-(piperidin-1-yl)-3H-imidazo[4,5-b]pyridin-2-yl)-1H-pyrazolo[3,4-c]pyridine] | 16.7 | – | 25.6 | 53
CC(C)(C)C(=O)Nc1cncc(-c2cc3c(-c4nc5c(-c6ccsc6)ccnc5[nH]4)n[nH]c3cn2)c1 [Compound 268, N-(5-(3-(7-(Thiophen-3-yl)-3H-imidazo[4,5-b]pyridin-2-yl)-1H-pyrazolo[3,4-c]pyridin-5-yl)pyridin-3-yl)pivalamide] | 9.7 | – | 25.8 | 141
CC(C)Nc1cncc(-c2cc3c(-c4nc5c(-c6ccc(F)cc6)ccnc5[nH]4)n[nH]c3cn2)c1 [Compound 38, 5-(3-(7-(4-Fluorophenyl)-3H-imidazo[4,5-b]pyridin-2-yl)-1H-pyrazolo[3,4-c]pyridin-5-yl)-N-isopropylpyridin-3-amine] | 10.3 | 300 | 74.9 | 34
c1cncc(-c2cc3c(-c4nc5cccnc5[nH]4)n[nH]c3cn2)c1 [Compound 238] | 16.1 | 30 | 113 | 369
CCCC(=O)Nc1cncc(-c2cc3c(-c4nc5c(-c6ccc(C)s6)ccnc5[nH]4)n[nH]c3cn2)c1 [Compound 381, N-(5-(3-(7-(5-Methylthiophen-2-yl)-3H-imidazo[4,5-b]pyridin-2-yl)-1H-pyrazolo[3,4-c]pyridin-5-yl)pyridin-3-yl)butyramide] | 9.5 | – | 59.6 | 18
NC1CN(c2cncc(-c3cc4c(-c5nc6c(-c7cccc(F)c7)ccnc6[nH]5)n[nH]c4cn3)n2)C1 [Compound 942, 1-(6-(3-(7-(3-Fluorophenyl)-3H-imidazo[4,5-b]pyridin-2-yl)-1H-pyrazolo[3,4-c]pyridin-5-yl)pyrazin-2-yl)azetidin-3-amine] | 1490 | – | – | 1470
Cc1ccc(-c2ccnc3[nH]c(-c4n[nH]c5cnc(-c6cncc(NC(=O)C(C)(C)C)c6)cc45)nc23)s1 [Compound 372, N-(5-(3-(7-(5-Methylthiophen-2-yl)-3H-imidazo[4,5-b]pyridin-1)-1H-pyrazolo[3,4-c]pyridin-5-yl)pyridin-3-yl)pivalamide] | 24.8 | – | – | 220
CC(C)(C)C(=O)Nc1cncc(-c2cc3c(-c4nc5c(N6CCCCC6)ccnc5[nH]4)n[nH]c3cn2)c1 [Compound 164, N-(5-(3-(7-(Piperidin-1-yl)-3H-imidazo[4,5-b]pyridin-2-yl)-1H-pyrazolo[3,4-c]pyridin-5-yl)pyridin-3-yl)pivalamide] | 84.4 | – | – | ≤ 9
CC(C)Nc1cncc(-c2cc3c(-c4nc5c(-c6ccoc6)ccnc5[nH]4)n[nH]c3cn2)c1 [Compound 298, 5-(3-(7-(Furan-3-yl)-3H-imidazo[4,5-b]pyridin-2-yl)-1H-pyrazolo[3,4-c]pyridin-5-yl)-N-isopropylpyridin-3-amine] | 46.8 | – | – | 472
Cn1cc(-c2cc3c(-c4nc5c(-c6cccc(F)c6)ccnc5[nH]4)n[nH]c3cn2)cn1 [Compound 940, 3-(7-(3-Fluorophenyl)-3H-imidazo[4,5-b]pyridin-2-yl)-5-(1-methyl-1H-pyrazol-4-yl)-1H-pyrazolo[3,4-c]pyridine] | 405 | – | – | 353
Oc1cncc(-c2cc3c(-c4nc5c(-c6cccc(F)c6)ccnc5[nH]4)n[nH]c3cn2)c1 [Compound 949, 5-(3-(7-(3-Fluorophenyl)-3H-imidazo[4,5-b]pyridin-2-yl)-1H-pyrazolo[3,4-c]pyridin-5-yl)pyridin-3-ol] | 111 | 100 | 143 | 31
CC(=O)c1ccc(-c2ccnc3[nH]c(-c4n[nH]c5cnc(-c6cncc(NC(=O)CC(C)(C)C)c6)cc45)nc23)s1 [Compound 406, N-(5-(3-(7-(5-Acetylthiophen-2-yl)-3H-imidazo[4,5-b]pyridin-2-yl)-1H-pyrazolo[3,4-c]pyridin-5-yl)pyridin-3-yl)-3,3-dimethylbutanamide] | > 10000 | – | – | ≥ 9990
CCCC(=O)Nc1cncc(-c2cc3c(-c4nc5c(N6CCCCC6)ccnc5[nH]4)n[nH]c3cn2)c1 [Compound 173, N-(5-(3-(7-(Piperidin-1-yl)-3H-imidazo[4,5-b]pyridin-2-yl)-1H-pyrazolo[3,4-c]pyridin-5-yl)pyridin-3-yl)butyramide] | 169 | – | – | 18
CC(=O)c1ccc(-c2ccnc3[nH]c(-c4n[nH]c5cnc(-c6cncc(NC(=O)C7CCCCC7)c6)cc45)nc23)s1 [Compound 412, N-(5-(3-(7-(5-Acetylthiophen-2-yl)-3H-imidazo[4,5-b]pyridin-2-yl)-1H-pyrazolo[3,4-c]pyridin-5-yl)pyridin-3-yl)cyclohexanecarboxamide] | > 10000 | – | – | ≥ 9990
Cc1cn(-c2ccnc3[nH]c(-c4n[nH]c5cnc(-c6cncc(CN7CCCC7)c6)cc45)nc23)cn1 [Compound 196] | > 10000 | – | – | ≥ 9990

Source: patent publication US9815854B2, “3-(3H-imidazo[4,5-B]pyridin-2-yl)-1H-pyrazolo[3,4-C]pyridine and therapeutic uses thereof” (Samumed, LLC, priority 2014, dated 2017)
